Laboratory results taken from patent US20090221653A1, “7-(2-amino-1-hydroxy-ethyl)-4-hydroxybenzothiazol-2(3H)-one-derivatives as beta2 adrenoreceptor agonists” (AstraZeneca AB, priority 2005, published 2009).
Where a name gives a salt, the structure may show the parent alone.

Legend:
Adrenergic β2 = target: T1, Adrenergic β2 (Homo sapiens, UniProt P07550); test: Alternative Adrenergic β2 Mediated cAMP Production in H292 cells (AlphaScreen cAMP detection); format: cell-based; conditions: for EC50: cAMP, test compounds incubated 60 minutes, 300 μM rolipram, read-out: β2 pEC50 (converted); for β2 Int Act: fraction relative to the maximum activity determined for formoterol, 60 minutes incubation
T1 construct: endogenous in cells; host or cells: H292 cells
T1 sequence (P07550 whole entry): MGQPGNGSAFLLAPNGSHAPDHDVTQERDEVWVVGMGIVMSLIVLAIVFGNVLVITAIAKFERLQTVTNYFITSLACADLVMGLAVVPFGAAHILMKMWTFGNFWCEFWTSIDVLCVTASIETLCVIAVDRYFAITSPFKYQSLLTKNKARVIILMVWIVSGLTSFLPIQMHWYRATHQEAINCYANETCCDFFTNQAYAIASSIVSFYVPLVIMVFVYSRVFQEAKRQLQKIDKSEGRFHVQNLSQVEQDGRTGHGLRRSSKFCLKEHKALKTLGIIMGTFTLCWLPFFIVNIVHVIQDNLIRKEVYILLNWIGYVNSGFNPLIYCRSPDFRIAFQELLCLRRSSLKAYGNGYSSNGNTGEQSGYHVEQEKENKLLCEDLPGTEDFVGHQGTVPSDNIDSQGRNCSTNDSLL

[1] = target: T2, recombinant human adrenergic beta 1 receptors (Homo sapiens, UniProt P08588); test: Adrenergic β1 selectivity assay, inhibition of [125I]-Iodocyanopindolol binding; conditions: membranes, [125I]-Iodocyanopindolol; read-out: β1 bind pIC50 (converted)
T2 construct: purchased Euroscreen
T2 sequence (P08588 whole entry): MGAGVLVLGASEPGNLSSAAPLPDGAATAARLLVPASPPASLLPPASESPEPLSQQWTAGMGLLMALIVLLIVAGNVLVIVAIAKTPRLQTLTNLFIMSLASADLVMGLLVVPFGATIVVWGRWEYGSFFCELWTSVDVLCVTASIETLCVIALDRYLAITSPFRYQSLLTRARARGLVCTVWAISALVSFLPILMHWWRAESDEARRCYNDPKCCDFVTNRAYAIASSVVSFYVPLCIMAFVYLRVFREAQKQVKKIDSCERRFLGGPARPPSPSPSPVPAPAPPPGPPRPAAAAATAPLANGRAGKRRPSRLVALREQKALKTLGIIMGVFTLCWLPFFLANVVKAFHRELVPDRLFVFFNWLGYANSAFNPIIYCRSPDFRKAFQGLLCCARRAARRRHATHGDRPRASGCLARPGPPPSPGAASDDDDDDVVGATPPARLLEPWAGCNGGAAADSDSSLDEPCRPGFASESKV
Method: Membranes containing recombinant human adrenergic beta 1 receptors were obtained from Euroscreen. These were diluted in Assay Buffer (50 mM HEPES, 1 mM EDTA, 120 mM NaCl, 0.1% gelatin, pH 7.4) to provide a final concentration of membranes that gave a clear window between maximum and minimum specific binding.
Assays were performed in U-bottomed 96-well polypropylene plates. […] Membranes were then added to achieve a final volume of 100 μL. The plates were incubated for 2 hours at room temperature and then filtered onto PEI coated GF/B filter plates, pre-soaked for 1 hour in Assay Buffer, using a 96-well plate Tomtec cell harvester. Five washes with 250 μL wash buffer (50 mM HEPES, 1 mM EDTA, 120 mM NaCl, pH 7.4) were performed at 4° C. to remove unbound radioactivity. The plates were dried then sealed from underneath using Packard plate sealers and MicroScint-O (50 μL) was added to each well. The plates were sealed (TopSeal A) and filter-bound radioactivity was measured with a scintillation counter (TopCount, Packard BioScience) using a 3-minute counting protocol.
Total specific binding (B0) was determined by subtracting the mean NSB from the mean maximum binding. NSB values were also subtracted from values from all other wells.

[2] = target: T3, recombinant human Dopamine Subtype D2s receptors (Homo sapiens, UniProt P14416); test: Dopamine D2 selectivity assay, inhibition of [3H]-spiperone binding; conditions: membranes, [3H]-spiperone 0.16 nM; read-out: D2 bind pIC50 (converted)
T3 construct: purchased Perkin Elmer
T3 sequence (P14416 1-414 isoform P14416-2): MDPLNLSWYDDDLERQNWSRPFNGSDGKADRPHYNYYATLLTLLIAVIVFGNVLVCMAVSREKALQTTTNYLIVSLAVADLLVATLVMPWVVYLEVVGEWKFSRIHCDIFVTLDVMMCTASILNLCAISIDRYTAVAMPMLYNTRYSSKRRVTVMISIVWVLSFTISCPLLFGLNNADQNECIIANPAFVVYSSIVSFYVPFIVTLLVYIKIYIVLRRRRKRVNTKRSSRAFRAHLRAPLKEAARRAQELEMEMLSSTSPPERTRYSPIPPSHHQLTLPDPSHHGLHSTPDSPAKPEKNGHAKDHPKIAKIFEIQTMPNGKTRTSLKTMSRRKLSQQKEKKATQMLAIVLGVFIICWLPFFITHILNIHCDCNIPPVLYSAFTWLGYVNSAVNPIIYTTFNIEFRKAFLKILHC

Compound	EC50 (Adrenergic β2) [nM]	β2 Int Act (Adrenergic β2)	IC50 [1] [nM]	IC50 [2] [nM]
O=c1[nH]c2c(O)ccc([C@@H](O)CNCCCS(=O)(=O)CCOCCc3cccc4ccccc34)c2s1 [Example 2, 4-Hydroxy-7-((1R)-1-hydroxy-2-{[3-({2-[2-(1-naphthyl)ethoxy]ethyl}sulfonyl)propyl]-amino}ethyl)-1,3-benzothiazol-2(3H)-one trifluoroacetate]	0.158	1	15.8	–
Cl.O=c1[nH]c2c(O)ccc([C@@H](O)CNCCSCCOCCc3cccc4ccccc34)c2s1 [Example 4, 4-Hydroxy-7-((1R)-1-hydroxy-2-{[2-({2-[2-(1-naphthyl)ethoxy]ethyl}thio)ethyl]-amino}ethyl)-1,3-benzothiazol-2(3H)-one hydrochloride]	0.1	0.9	126	794
